Laboratory results as given in article PMC6078311, “Localization and functional characterization of the pathogenesis-related proteins Rbe1p and Rbt4p in Candida albicans” (PLoS ONE, 2018).

Assays:
Rbe1p = target: T1, Rbe1p (Candida albicans, UniProt Q59ZX3); assay: in vitro [3H]-cholesterol radioligand saturation binding with purified protein; competition with unlabeled cholesterol
T1 construct: gene RBE1; codon-optimized His-tagged Rbe1p expressed in Escherichia coli

Rbt4p = target: T2, Rbt4p (Candida albicans, UniProt Q5AB48); assay: as above
T2 construct: gene RBT4; codon-optimized His-tagged Rbt4p expressed in Escherichia coli
T2 sequence (Q5AB48 20-358): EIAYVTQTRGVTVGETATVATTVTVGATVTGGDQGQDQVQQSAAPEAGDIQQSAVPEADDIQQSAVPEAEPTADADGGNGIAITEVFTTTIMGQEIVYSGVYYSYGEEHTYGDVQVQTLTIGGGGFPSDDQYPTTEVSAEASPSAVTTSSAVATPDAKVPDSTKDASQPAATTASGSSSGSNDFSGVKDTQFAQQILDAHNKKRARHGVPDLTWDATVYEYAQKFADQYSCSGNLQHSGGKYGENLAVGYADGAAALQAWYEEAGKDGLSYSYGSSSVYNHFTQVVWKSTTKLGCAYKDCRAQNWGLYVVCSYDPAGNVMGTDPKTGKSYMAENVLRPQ

T1 sequence (Q59ZX3 20-271): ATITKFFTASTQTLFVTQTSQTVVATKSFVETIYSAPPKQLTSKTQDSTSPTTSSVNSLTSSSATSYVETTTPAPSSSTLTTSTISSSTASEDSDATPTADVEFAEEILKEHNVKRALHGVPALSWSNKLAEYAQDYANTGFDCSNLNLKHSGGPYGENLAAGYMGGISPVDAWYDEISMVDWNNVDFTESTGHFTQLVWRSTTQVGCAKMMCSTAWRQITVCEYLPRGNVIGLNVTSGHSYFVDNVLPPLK

CC(C)CCC[C@@H](C)[C@H]1CC[C@H]2[C@@H]3CC=C4C[C@@H](O)CC[C@]4(C)[C@H]3CC[C@]12C [cholesterol]
Kd (Rbe1p): ~5.78 µM
Kd (Rbt4p): ~3.3 µM
